For the experiment, the system named is MIF. Briefly: RBCs or RBC ghosts cultured in plasma with heparin or EDTA, MIF ELISA (Example 1). It is filed as cell-based, human. The settings on record: addition of EDTA to the cell suspensions, compared with heparin treatment; FIG. 2. Here is the method:
To determine if the presence of anticoagulants alter the capacity for protein binding to red blood cells, these cells were incubated in plasma with or without heparin or EDTA. Whole blood from healthy volunteers was collected into EDTA vacutainers (3 mg/mL). Plasma was collected from blood collected into hepain and citrate vacutainers. […] The ghosts were then isolated by centrifugation (16,000 g, 20 minutes) and were resuspended in PBS. […] The red blood cells or ghosts were then cultured for 0, 1, or 18 hours at 37° C. As controls, EDTA plasma containing heparin or EDTA were culture under the same conditions. Following incubation, the cell free supernatants was collected and stored at −80° C. Prior to analysis, samples were subjected to ×3 freeze-thaw cycles. MIF concentration of the samples was quantified using a MIF ELISA.

Consider one compound from US11564948B2, “Therapeutic methods using erythrocytes” (Sangui Bio Pty Ltd, priority 2015, dated 2023).

Take `O=C(O)CN(CCN(CC(=O)O)CC(=O)O)CC(=O)O` [EDTA, ethylenediaminetetraacetic acid]: the “MIF in the RBC lysates and ghosts 'lysates'” value is on record as “substantially less”.
